target: Endothelial lipase (EL) (Homo sapiens (Human), UniProt Q9Y5X9); test: Endothelial lipase (EL) activity assay with fluorescent substrate A10070 in DMPG vesicles; format: biochemical
Experimental: Endothelial lipase activity was measured using a fluorescent substrate, A10070, (Invitrogen, CA) doped into an artificial vesicle containing DMPG (Avanti Polar Lipids) as the excipient. Vesicles were prepared by combining 285 μL of 1 mM DMPG in a 1:1 mixture of MeOH and CHCl3 with 15 μL of 1 mM A10070 in a 1:1 mixture of MeOH and CHCl3. The mixture was dried under nitrogen and resuspended in 150 μL of 50 mM HEPES pH 8.0 buffer containing 100 mM NaCl and 0.2 mM EDTA. The sample was allowed to sit at rt for 15 min and then was sonicated 3×4 mins on ice with a Branson Sonicator using duty cycle 1. This preparation provides vesicles with a mole fraction of 0.05 for the FRET substrate.
The enzymatic assay was measured using white, opaque 96-well half area plates. Each well contained 60 μL of assay buffer (50 mM HEPES pH 8.0, 50 mM NaCl and 1 mM CaCl2) and 2 ul of a DMSO solution containing compound of interest. Conditioned media obtained from HT-1080 cells, which were transformed by RAGE technology (Athersys) to overexpress endogenous EL, was added and the reaction was allowed to incubate for 20 min at 37° C. with gentle agitation. The reaction was started by the addition of 20 μL of a 1:4 dilution of vesicles. The final total reaction volume was 100 μL. The reaction rates were measured on a Gemini plate reader with an excitation wavelength of 488 nm and an emission of 530 nm. Readings were taken every 20 seconds for 10 min with agitation between each reading. The slope of the linear portion of the readout was used to calculate the rate of the reaction.

Endothelial lipase (EL), sequence (Q9Y5X9 21-500): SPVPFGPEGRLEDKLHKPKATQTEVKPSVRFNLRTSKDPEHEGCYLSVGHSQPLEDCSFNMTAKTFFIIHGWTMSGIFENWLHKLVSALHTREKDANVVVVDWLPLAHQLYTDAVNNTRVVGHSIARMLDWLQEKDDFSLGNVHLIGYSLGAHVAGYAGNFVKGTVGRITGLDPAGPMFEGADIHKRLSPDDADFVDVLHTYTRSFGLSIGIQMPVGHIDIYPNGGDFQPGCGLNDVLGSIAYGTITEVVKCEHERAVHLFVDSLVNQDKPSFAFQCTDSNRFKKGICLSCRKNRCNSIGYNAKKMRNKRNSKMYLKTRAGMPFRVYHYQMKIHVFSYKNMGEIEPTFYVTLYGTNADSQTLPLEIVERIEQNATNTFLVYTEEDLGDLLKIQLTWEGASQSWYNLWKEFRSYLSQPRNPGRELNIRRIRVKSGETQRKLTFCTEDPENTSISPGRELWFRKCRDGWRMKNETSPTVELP

| SMILES | IC50 |
| --- | --- |
| CC(C)(C)OC(=O)CNc1nnc(C(=O)c2nc3ccc(-c4ccccc4)cc3s2)o1 [Example 67, tert-butyl 2-((5-(6-phenylbenzo[d]thiazole-2-carbonyl)-1,3,4-oxadiazol-2-yl)amino)acetate] | 130 nM |
| CN(Cc1nnc(C(=O)c2nc3ccc(-c4ccccc4)cc3s2)o1)S(N)(=O)=O [Example 27, N-methyl-N-((5-((6-phenyl-1,3-benzothiazol-2-yl)carbonyl)-1,3,4-oxadiazol-2-yl)methyl)sulfamide] | 23 nM |
| O=C(c1nnc(N[C@H]2CCNC2=O)o1)c1nc2c(F)cc(-c3ccccc3)cc2s1 [Example 55, (S)-3-((5-(4-fluoro-6-phenylbenzo[d]thiazole-2-carbonyl)-1,3,4-oxadiazol-2-yl)amino)pyrrolidin-2-one] | 10 nM |
| O=C(c1nnc(CCc2nc3ccccc3[nH]2)o1)c1nc2c(F)cc(-c3ccccc3)cc2s1 [Example 14, (5-(2-(1H-benzo[d]imidazol-2-yl)ethyl)-1,3,4-oxadiazol-2-yl)(4-fluoro-6-phenylbenzo[d]thiazol-2-yl)methanone] | < 10 nM |
| O=C(c1nnc(NC2CCCNC2=O)o1)c1nc2ccc(-c3ccccc3)cc2s1 (single isomer, unassigned) [Example 77, 3-((5-(6-phenylbenzo[d]thiazole-2-carbonyl)-1,3,4-oxadiazol-2-yl)amino)piperidin-2-one] | 140 nM |
| CC(C)(C)OC(=O)N1CCC(CCc2nnc(C(=O)c3nc4ccc(-c5ccc(F)cc5)cc4s3)o2)CC1 [Example 15, tert-butyl 4-(2-(5-(6-(4-fluorophenyl)benzo[d]thiazole-2-carbonyl)-1,3,4-oxadiazol-2-yl)ethyl)piperidine-1-carboxylate] | < 10 nM |
| C[C@H](Nc1nnc(C(=O)c2nc3ccc(-c4ccc(F)cc4)cc3s2)o1)c1ccc(Cl)cc1 [Example 65, (S)-(5-((1-(4-chlorophenyl)ethyl)amino)-1,3,4-oxadiazol-2-yl)(6-(4-fluorophenyl)benzo[d]thiazol-2-yl)methanone] | 420 nM |
| O=C(c1nnc(C2CCS(=O)(=O)N2)o1)c1nc2ccc(-c3ccccc3)cc2s1 (centres unmarked) [Example 11, (5-(1,1-dioxidoisothiazolidin-3-yl)-1,3,4-oxadiazol-2-yl)(6-phenylbenzo[d]thiazol-2-yl)methanone] | < 10 nM |
| O=C(c1nnc(N[C@H](CCO)C(=O)O)o1)c1nc2ccc(-c3ccccc3)cc2s1 [Example 68, (R)-4-hydroxy-2-((5-(6-phenylbenzo[d]thiazole-2-carbonyl)-1,3,4-oxadiazol-2-yl)amino)butanoic acid] | 27 nM |
| O=C(c1nnc(N[C@H]2CCNC2=O)o1)c1nc2ccc(-c3ccc(OC(F)F)cc3)cc2s1 [Example 82, (S)-3-((5-(6-(4-(difluoromethoxy)phenyl)benzo[d]thiazole-2-carbonyl)-1,3,4-oxadiazol-2-yl)amino)pyrrolidin-2-one] | < 10 nM |
| NS(=O)(=O)Cc1nnc(C(=O)c2nc3c(F)cc(-c4ccccc4)cc3s2)o1 [Example 12, (5-(4-fluoro-6-phenylbenzo[d]thiazole-2-carbonyl)-1,3,4-oxadiazol-2-yl)methanesulfonamide] | < 10 nM |
| O=C(c1nnc(CCC2CCN(CC3CC3)CC2)o1)c1nc2ccc(-c3ccccc3)cc2s1 [Example 19, (5-(2-(1-(cyclopropylmethyl)piperidin-4-yl)ethyl)-1,3,4-oxadiazol-2-yl)(6-phenylbenzo[d]thiazol-2-yl)methanone] | 13 nM |
| O=C(c1nnc(N2CC[C@@H](c3ccccc3)C2)o1)c1nc2ccc(-c3ccccc3)cc2s1 [Example 79, (S)-(6-phenylbenzo[d]thiazol-2-yl)(5-(3-phenylpyrrolidin-1-yl)-1,3,4-oxadiazol-2-yl)methanone] | 310 nM |
| O=C(c1nnc(N[C@@H]2CCNC2=O)o1)c1nc2ccc(-c3ccccc3)cc2s1 [Example 56, (R)-3-((5-(6-phenylbenzo[d]thiazole-2-carbonyl)-1,3,4-oxadiazol-2-yl)amino)pyrrolidin-2-one] | 46 nM |
| O=C(c1nnc(C2CCN(c3ccc(C(F)(F)F)cc3)CC2)o1)c1nc2ccc(-c3ccccc3)cc2s1 [Example 13, (6-phenylbenzo[d]thiazol-2-yl)(5-(1-(4-(trifluoromethyl)phenyl)piperidin-4-yl)-1,3,4-oxadiazol-2-yl)methanone] | < 10 nM |
| O=C(c1nnc(CCc2ncc[nH]2)o1)c1nc2ccc(-c3ccccc3)cc2s1 [Example 8, (5-(2-(1H-imidazol-2-yl)ethyl)-1,3,4-oxadiazol-2-yl)(6-phenylbenzo[d]thiazol-2-yl)methanone] | 11 nM |
| COc1ccc(CNc2nnc(C(=O)c3nc4ccc(-c5ccccc5)cc4s3)o2)c(OC)c1 [Example 69] | 310 nM |

Results, then the compound that gave them:

| IC50 | SMILES |
| --- | --- |
| 22 nM | O=C(c1nnc(N[C@H]2CCOC2=O)o1)c1nc2ccc(-c3ccccc3)cc2s1 [Example 57, (S)-3-((5-(6-phenylbenzo[d]thiazole-2-carbonyl)-1,3,4-oxadiazol-2-yl)amino)dihydrofuran-2(3H)-one] |
| 101 nM | CN(c1nnc(C(=O)c2nc3ccc(-c4ccccc4)cc3s2)o1)[C@H]1CCNC1=O [Example 86, (S)-3-(Methyl(5-(6-phenylbenzo[d]thiazole-2-carbonyl)-1,3,4-oxadiazol-2-yl)amino)pyrrolidin-2-one] |
| 21 nM | CC1(Cc2nnc(C(=O)c3nc4ccc(-c5ccccc5)cc4s3)o2)NC(=O)NC1=O (centres unmarked) [Example 33, 5-methyl-5-((5-(6-phenylbenzo[d]thiazole-2-carbonyl)-1,3,4-oxadiazol-2-yl)methyl)-imidazol-idine-2,4-dione] |
| 14 nM | CC(C)(C)CN1CCC(c2nnc(C(=O)c3nc4ccc(-c5ccccc5)cc4s3)o2)CC1 [Example 45, (5-(1-Neopentylpiperidin-4-yl)-1,3,4-oxadiazol-2-yl)(6-phenylbenzo[d]thiazol-2-yl)methanone] |
| 31 nM | CC(C)(C)OC(=O)N[C@H]1CC[C@H](c2nnc(C(=O)c3nc4ccc(-c5ccccc5)cc4s3)o2)CC1 [Example 16, tert-butyl ((1r,4r)-4-(5-(6-phenylbenzo[d]thiazole-2-carbonyl)-1,3,4-oxadiazol-2-yl)cyclohexyl)carbamate] |
| < 10 nM | CC1(Cc2nnc(C(=O)c3nc4ccc(-c5ccc(F)cc5)cc4s3)o2)NC(=O)NC1=O (centres unmarked) [Example 35, 5-((5-(6-(4-fluoro-phenyl)benzo[d]thiazole-2-carbonyl)-1,3,4-oxadiazol-2-yl)methyl)-5-methyl-imidazolidine-2,4-dione] |
| 28 nM | NC(=O)[C@@H](CCC(F)(F)F)Nc1nnc(C(=O)c2nc3ccc(-c4ccccc4)cc3s2)o1 [Example 75, (R)-5,5,5-trifluoro-2-((5-(6-phenylbenzo[d]thiazole-2-carbonyl)-1,3,4-oxadiazol-2-yl)amino) pentanamide] |
| 16 nM | O=C(c1nnc(CC2NC(=O)N(c3ccccc3)C2=O)o1)c1nc2ccc(-c3ccccc3)cc2s1 (centres unmarked) [Example 41, 3-phenyl-5-((5-(6-phenylbenzo[d]thiazole-2-carbonyl)-1,3,4-oxadiazol-2-yl)methyl)-imidazol-idine-2,4-dione] |
| 104 nM | NC(=O)CNc1nnc(C(=O)c2nc3ccc(-c4ccccc4)cc3s2)o1 [Example 58, 2-((5-(6-phenylbenzo[d]thiazole-2-carbonyl)-1,3,4-oxadiazol-2-yl)amino) acetamide] |
| < 10 nM | NC(=O)c1ccc(-c2ccc3nc(C(=O)c4nnc(N[C@H]5CCNC5=O)o4)sc3c2)cc1 [Example 51, (S)-4-(2-(5-((2-Oxopyrrolidin-3-yl)amino)-1,3,4-oxadiazole-2-carbonyl)benzo[d]thiazol-6-yl)benzamide] |
| 19 nM | COc1nc(-c2nnc(C(=O)c3nc4ccc(-c5ccccc5)cc4s3)o2)c(O)c(=O)[nH]1 [Example 47, 5-Hydroxy-2-methoxy-6-(5-(6-phenylbenzo[d]thiazole-2-carbonyl)-1,3,4-oxadiazol-2-yl)pyrimidin-4(3H)-one] |
| 27 nM | O=C(c1nnc(NC2CCCNC2=O)o1)c1nc2ccc(-c3ccccc3)cc2s1 (single isomer, unassigned) [Example 78, 3-((5-(6-phenylbenzo[d]thiazole-2-carbonyl)-1,3,4-oxadiazol-2-yl)amino)piperidin-2-one] |
| 490 nM | O=C(c1nnc(N[C@H]2CCN(CC(F)(F)F)C2=O)o1)c1nc2ccc(-c3ccccc3)cc2s1 [Example 91, (S)-3-((5-(6-Phenylbenzo[d]thiazole-2-carbonyl)-1,3,4-oxadiazol-2-yl)amino)-1-(2,2,2-trifluoroethyl)pyrrolidin-2-one] |
| < 10 nM | O=C(c1nnc(N[C@H]2CCNC2=O)o1)c1nc2ccc(-c3ccccc3)cc2s1 [Example 53, (S)-3-((5-(6-phenylbenzo[d]thiazole-2-carbonyl)-1,3,4-oxadiazol-2-yl)amino)pyrrolidin-2-one] |
| 6.6 nM | O=C(c1nnc(NCCc2ccc(Cl)cc2)o1)c1nc2ccc(-c3ccc(F)cc3)cc2s1 [Example 64, (5-((4-chlorophenethyl)amino)-1,3,4-oxadiazol-2-yl)(6-(4-fluorophenyl)benzo[d]thiazol-2-yl)methanone] |

From patent US9169240B2, “Ketone linked benzothiazole inhibitors of endothelial lipase” (BRISTOL-MYERS SQUIBB COMPANY, priority 2012, dated 2015)
